In US10363227B2, “Pharmaceutical formulation for use in the treatment and/or prevention of restenosis” (Centre Hospitalier Universitaire Vaudois (C.H.U.V.), priority 2013, dated 2019):

Experiments:
[1] = system: human vascular smooth muscle cells (hVSMC); assay: hVSMC viability, MTT test; type: cell-based
Primary hVSMCs = assay: hVSMC migration, silicon culture inserts with cell free gap; type: cell-based, human
Experimental: (§1) To that end, experiments on the influence of the drug on migration and transmigration of the hVSMC and the expression of different mRNAs of proteins involved in the cellular invasivity were performed.

hVSMCs = assay: mRNA levels in hVSMCs (PAI-1, MMP2, Cx43, tPA, HMOX); type: cell-based, human; conditions: ATV directly added in the medium, 24 hours incubation
Experimental: FIG. 6: Analysis of transcripts and proteins of hVSMC. Measurements of various mRNAs levels in hVSMCs in presence of ATV directly added in the medium were performed. PAI-1 and MMP2 and Cx43 mRNA levels were decreased whereas tPA and HMOX transcripts were increased after 24 hours incubation.
as §1

CC(C)c1c(C(=O)Nc2ccccc2)c(-c2ccccc2)c(-c2ccc(F)cc2)n1CC[C@@H](O)C[C@@H](O)CC(=O)O [ATV, Atorvastatin]
time of viability reduction ([1]; 5 μM ATV): 72 h | time of viability reduction ([1]; 10 μM ATV): 24 h | viability of hVSMCs (MTT test) ([1]; 5-10 μM ATV, P<0.05 versus cells without ATV): significantly reduced | proliferation of human SMC ([1]; primary culture at passage 2-5): decreased | time at which inhibition of cell migration was observed (Primary hVSMCs; 5 μM ATV directly added to the culture medium): 36 h | time at which inhibition of cell migration was observed (Primary hVSMCs; 10 μM ATV directly added to the culture medium): 24 h | hVSMC migration into cell free gap (Primary hVSMCs; 5 and 10 μM ATV): decreased | Cx43 mRNA level (hVSMCs): decreased | HMOX transcript level (hVSMCs): increased | MMP2 mRNA level (hVSMCs): decreased | PAI-1 mRNA level (hVSMCs): decreased | tPA transcript level (hVSMCs): increased
